Source: patent US5556744A, “Methods and compositions for diagnosing and treating certain HIV infected patients” (The Trustees of the University of Pennsylvania, priority 1994, dated 1996)

What was measured:
[1] = test system: HIV-1; conditions: antisera (animals); cited from earlier work
[2] = test system: maternal sera (antibodies); assay: ELISA peptide-binding of maternal sera (Example 6); set-up: species or system human
Procedure, shortened: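 HIV-1 envelope peptides averaging 16 amino acids, covering external and transmembrane glycoprotein, were probed by ELISA. Third-trimester maternal sera, classed as transmitter or non-transmitter by child diagnosis, were each run on at least 40 peptides. Values give percent of sera binding a peptide.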

[3] = test system: maternal serum samples (antibodies); assay: ELISA peptide-binding of maternal sera, expanded peptide collection (Example 5); set-up: species or system human; conditions: Example 5
Procedure, shortened: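 Maternal sera diluted 1:50 or 1:500 in 1% BSA/PBS/0.05% Tween 20 were tested by ELISA on 10 μg/mL HIV IIIB gp120/gp41 peptides (~18 residues, ≥85% pure). Binding scored positive at experimental/control OD450nm ratio ≥2; HIV-seronegative human sera served as controls.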

[4] = test system: maternal HIV+ sera (antibodies); assay: RIA / ELISA binding of maternal HIV+ sera to gp120 and gp41 peptides (Example 3); set-up: species or system human
Procedure, shortened: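 Maternal sera, diluted 1:50 and 1:500, were bound overnight at 4°C to peptides immobilized at 10 μg/ml (pH 9.6 carbonate) and blocked with 1% BSA. Read-out was ¹²⁵I-labelled anti-human IgG counts or HRP-TMB OD450. Signal with peptide minus without was expressed relative to seronegative serum.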

## CTKAKRRVVQREKA [Peptide 497]
[1]
  Neutralizing activity of antisera generated to the peptide: do not demonstrate neutralizing activity
[2]; Non-Transmitters, N = 12
  Number of Non-Transmitters which bound to peptide: 0
  Percent of Non-Transmitters which bound to peptide: 0%
[2]; Transmitters, N = 4
  Number of Transmitters which bound to peptide: 0
  Percent of Transmitters which bound to peptide: 0%
[3]
  Binding / reactivity of maternal sera to peptide (in words): High reactivity but no difference between the two groups
[4]; 20 maternal sera
  Number of maternal sera binding to peptide: Sixteen
[4]; Non-transmitter group, n = 13
  Percentage of sera samples demonstrating binding to peptide, non-transmitter: 71%
[4]; Serum No. 1, Non-Transmission Group
  Binding of maternal HIV+ serum to peptide (sera/NHS ratio): - (specific OD450 or cpm of sera sample binding to peptide divided by the specific OD450 or cpm of NHS sample binding to peptide, which value is less than 2)
[4]; Serum No. 2, Non-Transmission Group
  Binding of maternal HIV+ serum to peptide (sera/NHS ratio): ++ (which value is greater than 3)
[4]; Serum No. 3, Non-Transmission Group
  Binding of maternal HIV+ serum to peptide (sera/NHS ratio): ++ (which value is greater than 3)
[4]; Serum No. 4, Transmission Group
  Binding of maternal HIV+ serum to peptide (sera/NHS ratio): ++ (which value is greater than 3)
[4]; Serum No. 5, Transmission Group
  Binding of maternal HIV+ serum to peptide (sera/NHS ratio): + (which value is between 2 to 3)
[4]; Serum No. 6, Non-Transmission Group
  Binding of maternal HIV+ serum to peptide (sera/NHS ratio): + (which value is between 2 to 3)
[4]; Serum No. 7, Non-Transmission Group
  Binding of maternal HIV+ serum to peptide (sera/NHS ratio): - (specific OD450 or cpm of sera sample binding to peptide divided by the specific OD450 or cpm of NHS sample binding to peptide, which value is less than 2)
[4]; Serum No. 8, Non-Transmission Group
  Binding of maternal HIV+ serum to peptide (sera/NHS ratio): ++ (which value is greater than 3)
[4]; Serum No. 9, Non-Transmission Group
  Binding of maternal HIV+ serum to peptide (sera/NHS ratio): ++ (which value is greater than 3)
[4]; Serum No. 10, Transmission Group
  Binding of maternal HIV+ serum to peptide (sera/NHS ratio): + (which value is between 2 to 3)
[4]; Serum No. 11, Non-Transmission Group
  Binding of maternal HIV+ serum to peptide (sera/NHS ratio): ++ (which value is greater than 3)
[4]; Serum No. 12, Non-Transmission Group
  Binding of maternal HIV+ serum to peptide (sera/NHS ratio): - (specific OD450 or cpm of sera sample binding to peptide divided by the specific OD450 or cpm of NHS sample binding to peptide, which value is less than 2)
[4]; Serum No. 13, Transmission Group
  Binding of maternal HIV+ serum to peptide (sera/NHS ratio): - (specific OD450 or cpm of sera sample binding to peptide divided by the specific OD450 or cpm of NHS sample binding to peptide, which value is less than 2)
[4]; Serum No. 14, Transmission Group
  Binding of maternal HIV+ serum to peptide (sera/NHS ratio): - (specific OD450 or cpm of sera sample binding to peptide divided by the specific OD450 or cpm of NHS sample binding to peptide, which value is less than 2)
[4]; Serum No. 15, Transmission Group
  Binding of maternal HIV+ serum to peptide (sera/NHS ratio): ++ (which value is greater than 3)
[4]; Serum No. 16, Non-Transmission Group
  Binding of maternal HIV+ serum to peptide (sera/NHS ratio): ++ (which value is greater than 3)
[4]; Serum No. 17, Non-Transmission Group
  Binding of maternal HIV+ serum to peptide (sera/NHS ratio): ++ (which value is greater than 3)
[4]; Serum No. 18, Non-Transmission Group
  Binding of maternal HIV+ serum to peptide (sera/NHS ratio): + (which value is between 2 to 3)
[4]; Serum No. 19, Transmission Group
  Binding of maternal HIV+ serum to peptide (sera/NHS ratio): + (which value is between 2 to 3)
[4]; Serum No. 20, Non-Transmission Group
  Binding of maternal HIV+ serum to peptide (sera/NHS ratio): + (which value is between 2 to 3)
[4]; Transmitter / transmission group, n = 7
  Percentage of sera samples demonstrating binding to peptide, transmitter: Seventy-seven
[4]; all 20 samples
  Percent of the maternal serum samples that bound to the peptide: 80%
